Measurements from ChEMBL document CHEMBL1130376, “Effects of taxoids from Taxus cuspidata on microtubule depolymerization and vincristine accumulation in MDR cells” (Bioorg Med Chem Lett, 1997).
In brackets after ≈: the same amount, converted by molar mass.

Experiments:
[1] = Vincristine (VCR) accumulation in multidrug resistant human ovarian cancer 2780 AD cells at a concentration 10 ug/mL; format: functional
[2] = Vincristine (VCR) accumulation in multidrug resistant human ovarian cancer 2780 AD cells at a concentration 1 ug/mL; format: functional
[3] = tested on: L1210; experiment: Cytotoxicity against murine leukemia L1210 cells; format: functional, cell-based, Mus musculus
[4] = Cytotoxicity against human epidermoid carcinoma KB cells; format: functional, cell-based
[5] = Mus musculus, L1210, read-out: IC50

Row | SMILES | vincristine accumulation (% of control) [1] [%] | vincristine accumulation (% of control) [2] [%] | IC50 [3, 5] [µg/mL] | IC50 [4] [µg/mL] | IC50 ([3]; l1210) [µg/mL]
1 | C=C1[C@@H](OC(=O)CC(c2ccccc2)N(C)C)CC[C@@]2(C)[C@@H](OC(C)=O)[C@H](OC(C)=O)C3=C(C)C(=O)C[C@@](O)([C@@H](OC(C)=O)[C@H]12)C3(C)C (stereo partly drawn) | 466 | 175 | 2.7 (≈ 4.04 µM) | > 10 | 
2 | C=C1[C@@H](OC(=O)/C=C/c2ccccc2)C[C@H](OC(C)=O)[C@@]2(C)[C@@H](OC(C)=O)[C@H](OC(C)=O)C3=C(C)C(=O)C[C@@H]([C@@H](OC(C)=O)[C@H]12)C3(C)C | 438 | 116 | > 10 | > 10 | 
3 | C=C1[C@@H](O)C[C@H](OC(C)=O)[C@@]2(C)[C@@H](OC(C)=O)[C@H](OC(C)=O)C3=C(C)[C@@H](OC(C)=O)C[C@@H]([C@@H](OC(C)=O)[C@H]12)C3(C)C [DECINNAMOYLTAXININE J] | 363 | 207 | > 10 | > 10 | 
4 | C=C1[C@@H](OC(=O)/C=C/c2ccccc2)C[C@H](OC(C)=O)[C@@]2(COC(=O)c3ccccc3)[C@@H](OC(C)=O)[C@H](OC(C)=O)[C@]3(O)[C@@]4(C)CO[C@]3(C)C(=O)C[C@H]4[C@@H](OC(C)=O)[C@H]12 | 537 | 169 | > 10 | > 10 | 
5 | C=C1[C@@H](OC(=O)/C=C/c2ccccc2)C[C@H](OC(C)=O)[C@]2(C)[C@@H]1C[C@]1(C(C)(C)O)C[C@H](OC(C)=O)C(C)=C1[C@@H](O)[C@@H]2OC(C)=O | 584 | 176 | 1.2 (≈ 1.92 µM) | 5.8 (≈ 9.28 µM) | 
6 | C=C1[C@@H](O)C[C@H](OC(C)=O)[C@@]2(C)[C@@H](OC(C)=O)[C@H](OC(=O)c3ccccc3)C3=C(C)[C@@H](OC(C)=O)C[C@@]3(C(C)(C)O)[C@@H](OC(C)=O)[C@H]12 | 313 | 158 | > 10 | > 10 | 
7 | C=C1[C@@H](OC(=O)/C=C/c2ccccc2)C[C@H](OC(C)=O)[C@@]2(C)[C@@H](OC(C)=O)[C@H](OC(C)=O)[C@]3(O)[C@@]4(C)CO[C@]3(C)C(=O)C[C@H]4[C@@H](OC(C)=O)[C@H]12 [TAXAGIFINE] | 242 | 194 | 1.3 (≈ 1.87 µM) | 0.86 (≈ 1.23 µM) | 
8 | CC(=O)O[C@H]1C[C@@H]2OC[C@@]2(OC(C)=O)[C@H]2[C@H](OC(=O)c3ccccc3)[C@]3(O)C[C@H](O)C(C)=C([C@@H](O)[C@H](O)[C@]12C)C3(C)C |  |  | 0.27 (≈ 0.459 µM) | 0.08 (≈ 0.136 µM) | 
9 | CC(=O)O[C@H]1C(=O)[C@@]2(C)[C@H]([C@H](OC(=O)c3ccccc3)[C@]3(O)C[C@H](OC(=O)[C@H](O)[C@@H](NC(=O)c4ccccc4)c4ccccc4)C(C)=C1C3(C)C)[C@]1(OC(C)=O)CO[C@@H]1C[C@@H]2O [PACLITAXEL] | 56 | 83 |  |  | 
10 | C=C1[C@@H](OC(=O)/C=C/c2ccccc2)C[C@H](OC(C)=O)[C@@]2(CO)[C@@H](OC(C)=O)[C@H](OC(C)=O)[C@]3(O)[C@@]4(C)CO[C@]3(C)C(=O)C[C@H]4[C@@H](OC(C)=O)[C@H]12 [TAXUSPINE S] | 190 | 136 | 3.8 (≈ 5.33 µM) | 0.26 (≈ 0.365 µM) | 
11 | C=C1[C@@H](OC(=O)CC(c2ccccc2)N(C)C)C[C@H](OC(C)=O)[C@]2(C)[C@@H]1C[C@@H]1C[C@H](OC(C)=O)C(C)=C([C@@H](OC(C)=O)[C@@H]2OC(C)=O)C1(C)C (stereo partly drawn) | 841 | 233 | 7.2 (≈ 10.3 µM) | > 10 | 
12 | C=C1[C@@H](O)CC[C@@]2(C)[C@@H](OC(C)=O)[C@H](OC(C)=O)C3=C(C)C(=O)C[C@@H]([C@@H](O)[C@H]12)C3(C)C | 271 | 139 | > 10 | > 10 | 
13 | C=C1[C@@H](O)CC[C@@]2(C)[C@@H](OC(C)=O)[C@H](OC(C)=O)C3=C(C)C(=O)C[C@@H]([C@@H](OC(C)=O)[C@H]12)C3(C)C [TAXININE A] | 461 | 153 | 8.9 (≈ 18.7 µM) | > 10 | 
14 | C=C1[C@@H](O)C[C@H](OC(C)=O)[C@@]2(COC(C)=O)[C@@H](OC(C)=O)[C@H](OC(C)=O)[C@]3(O)[C@@]4(C)CO[C@]3(C)C(=O)C[C@H]4[C@@H](OC(C)=O)[C@H]12 | 198 | 142 | > 10 | > 10 | 
15 | C=C1[C@@H](OC(=O)/C=C/c2ccccc2)CC[C@@]2(C)[C@@H](O)[C@H](OC(C)=O)C3=C(C)C(=O)C[C@@H]([C@@H](OC(C)=O)[C@H]12)C3(C)C | 372 | 173 | 1.1 (≈ 1.95 µM) | 0.17 (≈ 0.301 µM) | 
16 | C=C1[C@@H](OC(=O)/C=C/c2ccccc2)C[C@H](OC(C)=O)[C@]2(C)[C@@H]1C[C@]1(C(C)(C)O)C[C@H](OC(C)=O)C(C)=C1[C@@H](OC(C)=O)[C@@H]2OC(C)=O [TAXUSPINE J] | 842 | 258 | > 10 | > 10 | 

Row | SMILES | vincristine accumulation (% of control) [1] [%] | vincristine accumulation (% of control) [2] [%] | IC50 [3, 5] [µg/mL] | IC50 [4] [µg/mL] | IC50 ([3]; l1210) [µg/mL]
17 | CC(=O)O[C@H]1C[C@@H]2OC[C@@]2(OC(C)=O)[C@H]2[C@H](OC(C)=O)[C@]3(O)C[C@H](OC(=O)CC(c4ccccc4)N(C)C)C(C)=C([C@@H](OC(=O)c4ccccc4)[C@H](OC(C)=O)[C@]12C)C3(C)C (stereo partly drawn) |  |  | 7.8 (≈ 9.2 µM) | > 10 | 
18 | CC(=O)O[C@H]1[C@@H]2[C@H](CO)[C@@H](OC(C)=O)C[C@H](OC(C)=O)[C@@]2(C)[C@@H](OC(C)=O)[C@H](OC(C)=O)C2=C(C)[C@@H](OC(C)=O)C[C@@H]1C2(C)C | 264 | 177 | 10 (≈ 15.7 µM) | 4.5 (≈ 7.05 µM) | 
19 | C=C1[C@@H](O)C[C@H](OC(C)=O)[C@@]2(C)[C@@H](OC(C)=O)[C@H](OC(C)=O)[C@]3(O)[C@@]4(C)CO[C@]3(C)C(=O)C[C@H]4[C@@H](OC(C)=O)[C@H]12 | 213 | 225 | > 10 | > 10 | 
20 | CCCC(=O)NC(c1ccccc1)[C@@H](O)C(=O)O[C@H]1C[C@@]2(O)[C@@H](OC(=O)c3ccccc3)[C@@H]3[C@]4(OC(C)=O)CO[C@@H]4C[C@H](O)[C@@]3(C)C(=O)[C@H](OC(C)=O)C(=C1C)C2(C)C (stereo partly drawn) |  |  | 0.21 (≈ 0.256 µM) | 0.016 (≈ 0.0195 µM) | 
21 | C=C1[C@@H](OC(=O)CC(c2ccccc2)N(C)C)CC[C@]2(C)[C@@H]1C[C@@H]1C[C@H](OC(C)=O)C(C)=C([C@@H](OC(C)=O)[C@@H]2OC(C)=O)C1(C)C (stereo partly drawn) | 882 | 250 | > 10 | > 10 | 
22 | C=C1[C@@H](OC(C)=O)CC[C@@]2(C)[C@@H](OC(C)=O)[C@H](OC(C)=O)C3=C(C)[C@@H](OC(C)=O)C[C@@H]([C@@H](OC(C)=O)[C@H]12)C3(C)C |  |  | > 10 | > 10 | 
23 | C/C=C(\C)C(=O)O[C@@H]1C2=C(C)[C@@H](O)C[C@@]2(C(C)(C)O)[C@@H](OC(C)=O)[C@@H]2[C@]3(OC(C)=O)CO[C@@H]3C[C@H](OC(C)=O)[C@@]2(C)[C@H]1OC(C)=O | 206 | 145 | 4 (≈ 6.15 µM) | 0.3 (≈ 0.461 µM) | 
24 | CC(=O)O[C@H]1C[C@@]2(O)[C@@H](OC(C)=O)[C@@H]3[C@@]4(CO4)[C@@H](OC(C)=O)C[C@H](OC(C)=O)[C@@]3(C)[C@@H](OC(C)=O)[C@H](OC(C)=O)C(=C1C)C2(C)C | 135 | 119 | > 10 | > 10 | 
25 | C=C1[C@@H](OC(=O)CC(c2ccccc2)N(C)C)CC[C@@]2(C)[C@@H](OC(C)=O)[C@H](OC(C)=O)[C@@]34[C@H](C)C(=O)C[C@@H]([C@@H](OC(C)=O)C132)C4(C)C (stereo partly drawn) | 567 | 174 | > 10 | 1.6 (≈ 2.45 µM) | 
26 | CCCCCC(=O)NC(c1ccccc1)[C@@H](O)C(=O)O[C@H]1C[C@@]2(O)[C@@H](OC(=O)c3ccccc3)[C@@H]3[C@]4(OC(C)=O)CO[C@@H]4C[C@H](O)[C@@]3(C)C(=O)[C@H](O)C(=C1C)C2(C)C (stereo partly drawn) |  |  | 0.24 (≈ 0.298 µM) | 0.0017 (≈ 0.00211 µM) | 
27 | CCCCCC(=O)NC(c1ccccc1)[C@@H](O)C(=O)O[C@H]1C[C@@]2(O)[C@@H](OC(=O)c3ccccc3)[C@@H]3[C@]4(OC(C)=O)CO[C@@H]4C[C@H](O)[C@@]3(C)C(=O)[C@H](OC(C)=O)C(=C1C)C2(C)C (stereo partly drawn) |  |  | 0.21 (≈ 0.248 µM) | 0.0053 (≈ 0.00625 µM) | 
28 | COc1ccc(CCN(C)CCCC(C#N)(c2ccc(OC)c(OC)c2)C(C)C)cc1OC (stereo not drawn) [VERAPAMIL] | 739 | 254 |  |  | 
29 | CC(=O)O[C@@]12CO[C@@H]1C[C@H](O)[C@@]1(C)C(=O)[C@H](O)C3=C(C)[C@@H](OC(=O)[C@H](O)C(NC(=O)C4CCC4)c4ccccc4)C[C@@](O)([C@@H](OC(=O)c4ccccc4)[C@H]21)C3(C)C (stereo partly drawn) |  |  | 0.95 (≈ 1.2 µM) | 0.0048 (≈ 0.00608 µM) | 
30 | CC(=O)O[C@@]12CO[C@@H]1C[C@H](O)[C@@]1(C)C(=O)[C@H](O)C3=C(C)[C@@H](OC(=O)[C@H](O)C(NC(=O)c4ccccc4)c4ccccc4)C[C@@](O)([C@@H](OC(=O)c4ccccc4)[C@H]21)C3(C)C (stereo partly drawn) |  |  | 0.88 (≈ 1.08 µM) | 0.015 (≈ 0.0185 µM) | 
31 | CC(=O)O[C@H]1C(=O)[C@@]2(C)[C@H]([C@H](OC(=O)c3ccccc3)[C@]3(O)C[C@H](OC(=O)[C@H](O)[C@@H](NC(=O)c4ccccc4)c4ccccc4)C(C)=C1C3(C)C)[C@]1(OC(C)=O)CO[C@@H]1C[C@@H]2O (mixture of isomers) [PACLITAXEL] | 138 | 132 |  |  | 0.026
